Where two headings read alike, the source gives them in different places.
What was measured:
MV4-11 cells = test: MV4-11 cell line xenograft model of AML in NRG mice; format: in vivo; conditions: MV4-11 xenograft, 50 mg/kg QD each agent, oral; for bioluminescent signal (IVIS) / leukemia progression: 3 weeks (15 doses)
Description: To investigate the safety and the effectiveness of Compound A monotherapy and combination therapy with ABT-199 for eliminating human leukemic cells in animals, a cell-line based xenograft mouse study was performed. First, MV4-11 cells were transduced with a GFP/Luciferase lentivirus vector to allow sorting/analyzing of human leukemic cells in mice and the non-invasive in vivo imaging system (IVIS) of the mice to track leukemia development and leukemia forming sites. Then, 2.5 million of GFP positive MV4-11 cells per mouse were injected intravenously into irradiated male NRG mice. Two weeks after injection, IVIS imaging was performed to confirm leukemia formation and consistent levels of leukemia burden in each mouse. Following that, mice received 3 weeks (total of 15 doses) of oral treatment with vehicle (control), 50 mg/kg Compound A alone QD, 50 mg/kg ABT-199 alone QD or a combination of Compound A (50 mg/kg, QD) and ABT-199 (50 mg/kg, QD).
After the treatment period, another round of IVIS imaging was performed to evaluate the effectiveness of the treatments. FIG. 8A and FIG. 8B show the bioluminescent imaging of representative mice before treatment and after oral gavages with indicated treatments, respectively. Darkened areas represent sites of observed bioluminescence resultant from presence of GFP/Luciferase leukemic cells. For comparison, healthy mice with no transduced leukemic cells (“no cells”) are also shown.
A representative group of mice was then sacrificed to compare engraftment of leukemic cells in peripheral blood (PB), bone marrow (BM), spleens and livers of each treatment group. Infiltration of leukemic cells into hematopoietic organs as spleen and liver was assessed by weights and histopathologic analysis. FIGS. 9A and 9B show spleen sizes and weights, and Haemotoxylin and Eosin staining of representative mice from each treatment group as indicated, respectively.
The remaining mice were monitored for survival between treatment groups. […] Median survival for each treatment group is indicated in days in brackets. P-values were calculated with the Log-rank (Mantel-Cox) test and significant differences between groups are indicated.

[1] = tested on: CD34+ stem and progenitor cells from AML patients; test: Patient-derived xenograft (PDX) model of AML in NRG-3GS mice; format: in vivo; conditions: 50 mg/kg QD each agent, oral gavage, 4 weeks, compared to healthy non-leukemic mice
Text: The relative effectiveness of Compound A and the combination of Compound A and ABT-199 in targeting primitive leukemic cells and/or to prevent leukemia development were investigated in in vivo assays. First, highly purified CD34+ stem and progenitor cells from two different AML patients (with high Axl and GAS6 expression; cohort 1=AML patient #2, cohort 2=AML patient #14, as determined in Example 2) were transduced with a GFP/Luciferase lentivirus reporter to allow non-invasive in vivo imaging (IVIS) of the mice to track leukemia development. […]
Leukemic cell burden was also measured in peripheral blood (PB), bone marrow (BM) and spleens in one set of euthanized mice (one mouse from each treatment group in both cohorts, respectively) and immunophenotypes of engrafted cells determined with fluorescently-labelled CD45, CD34, CD38, CD33, CD15, CD14, CD19 surface markers. Splenomegaly was assessed by spleen sizes and weights (FIG. 5).
All remaining mice were monitored for symptoms of disease development (weight loss, lethargy etc.) and survival between treatment groups compared. […] P-values were calculated with the Log-rank (Mantel-Cox) test and significant differences between groups are indicated.

MV4-11 AML cell line = test: Compound dose response assay (trypan blue % viability) and CompuSyn combination analysis, MV4-11; format: cell-based; conditions: Homo sapiens
Description: (§1) The AML cell lines Molm-13 and MV4-11 were obtained from DSMZ. The cells were maintained in culture using RPMI-1640 containing 10% heat-inactivated serum at 37° C./5% CO2. For all experiments, unless otherwise specified, the above-mentioned culture conditions were used. The BCL-2 inhibitors venetoclax (ABT-199) and navitoclax (ABT-263) were purchased from Chemietek. The Axl inhibitor 3-(5-(cyclopropylmethyl)-1,3,4-oxadiazol-2-yl)-5-(1-(piperidin-4-yl)-1H-pyrazol-4-yl)pyridin-2-amine (Compound A) was synthesized according to the method disclosed in WO2015/081257.
(§2) The AML cells Molm-13 and MV4-11 were plated at 5×10^4 cells/mL in 24-well plates and dosed the following day using single or combination of drugs with vehicle (DMSO) only controls. Each cell treatment was conducted in duplicates. Cells were collected 48- or 72-hours post drug treatment, mixed 1:1 with trypan blue and counted manually using a hemocytometer. A total of 100 cells (at the least) were counted for each sample. The % viability was calculated and normalized to vehicle treated controls. Individual IC50 of each compound was determined in each cell line using increasing doses. Four doses less than the IC50 for each compound for each cell line were chosen to conduct the combination studies. The IC50 values were calculated using Prism Version 5.01. CompuSyn software Version 1.0 was used to calculate the combination indices.
(§3) The fraction affected (FA) at the same dose was much higher for the compound combination groups compared to that of the single compound groups.

Molm-13 AML cell line = test: Compound dose response assay (trypan blue % viability) and CompuSyn combination analysis, Molm-13; format: cell-based; conditions: Homo sapiens
Description: as §1, §2, §3

[2] = BCL-2 inhibitor + Cmpd A, read-out: IC50 (nM) of BCL-2 inhibitor in the presence of Compound A
[3] = single agent, % viability normalized to vehicle, 48 or 72 hours post treatment, read-out: IC50 (nM), single agent

Row | Structure (SMILES) | spleen enlargement (spleen sizes and weights) (MV4-11 cells; 3 weeks) | bioluminescent signal (IVIS) / leukemia progression (MV4-11 cells) | splenomegaly (spleen sizes and weights) [1] | IC50 (MV4-11 AML cell line; [2]) [nM] | IC50 (MV4-11 AML cell line; [3]) [nM] | IC50 (Molm-13 AML cell line; [2]) [nM] | IC50 (Molm-13 AML cell line; [3]) [nM] | leukemia propagating activity in vivo (MV4-11 cells; 3 weeks)
1 | CC1(C)CCC(CN2CCN(c3ccc(C(=O)NS(=O)(=O)c4ccc(NCC5CCOCC5)c([N+](=O)[O-])c4)c(Oc4cnc5[nH]ccc5c4)c3)CC2)=C(c2ccc(Cl)cc2)C1 [ABT-199, Venetoclax] | increased size and weight in the spleens | aggressive leukemia progression | significantly enlarged | 0.99 | 20.5 | 9.9 | 55.9 | –
2 | CC1(C)CCC(c2ccc(Cl)cc2)=C(CN2CCN(c3ccc(C(=O)NS(=O)(=O)c4ccc(N[C@H](CCN5CCOCC5)CSc5ccccc5)c(S(=O)(=O)C(F)(F)F)c4)cc3)CC2)C1 [ABT-263, Navitoclax] | – | – | – | 36.8 | 93.5 | 116 | 358 | –
3 | Nc1ncc(-c2cnn(C3CCNCC3)c2)cc1-c1nnc(CC2CC2)o1 [Compound A, 3-(5-(cyclopropylmethyl)-1,3,4-oxadiazol-2-yl)-5-(1-(piperidin-4-yl)-1H-pyrazol-4-yl)pyridin-2-amine] | no sign of spleen enlargement | dramatically lower intensity bioluminescent signals compared to vehicle and ABT-199 treated mice | significantly enlarged | – | 421 | – | 430 | can reduce leukemia propagating activity in vivo
